Data: patent US20100267561A1, “HERBICIDAL PYRIDAZINONE DERIVATIVES” (priority 2007, published 2010)

How the values were obtained:
Experiment in all cases: Test B pre-/postemergence plant response
Type in all cases: in vivo
[1] = system: cocklebur (Xanthium strumarium)
Text: (§1) Seeds of plant species selected from blackgrass (Alopecurus myosuroides), downy bromegrass (Bromus tectorum), green foxtail (Setaria viridis), Italian ryegrass (Lolium multiflorum), wheat (Triticum aestivum), wild oat (Avena fatua), catchweed bedstraw (Galium aparine), bermudagrass (Cynodon dactylon), surinam grass (Brachiaria decumbens), cocklebur (Xanthium strumarium), corn (Zea mays), large crabgrass (Digitaria sanguinalis), woolly cupgrass (Eriochloa villosa), giant foxtail (Setaria faberii), goosegrass (Eleusine indica), johnsongrass (Sorghum halepense), kochia (Kochia scoparia), lambsquarters (Chenopodium album), morningglory (Ipomoea coccinea), eastern black (E.B.) nightshade (Solanum ptycanthum), yellow nutsedge (Cyperus esculentus), pigweed (Amaranthus retroflexus), common ragweed (Ambrosia elation), Russian thistle (Salsola iberica), soybean (Glycine max), common (oilseed) sunflower (Helianthus annuus), and velvetleaf (Abutilon theophrasti) were planted and treated preemergence with test chemicals formulated in a non-phytotoxic solvent mixture which included a surfactant.
(§2) At the same time, plants selected from these crop and weed species and also winter barley (Hordeum vulgare), canarygrass (Phalaris minor), chickweed (Stellaria media) and windgrass (Apera spica-venti) were treated with postemergence applications of some of the test chemicals formulated in the same manner. Plants ranged in height from 2 to 18 cm (1- to 4-leaf stage) for postemergence treatments.
(§3) Plant species in the flooded paddy test consisted of rice (Oryza sativa), umbrella sedge (Cyperus difformis), ducksalad (Heteranthera limosa) and barnyardgrass (Echinochloa crus-galli) grown to the 2-leaf stage for testing. At time of treatment, test pots were flooded to 3 cm above the soil surface, treated by application of test compounds directly to the paddy water, and then maintained at that water depth for the duration of the test. Treated plants and controls were maintained in a greenhouse for 13 to 15 days, after which time all species were compared to controls and visually evaluated. Plant response ratings, summarized in Table B, are based on a scale of 0 to 100 where 0 is no effect and 100 is complete control. A dash (-) response means no test result.

[2] = system: blackgrass (Alopecurus myosuroides)
Text: as §1, §2, §3

[3] = system: surinam grass (Brachiaria decumbens)
Text: as §1, §2, §3

[4] = system: wheat (Triticum aestivum)
Text: as §1, §2, §3

[5] = system: common ragweed (Ambrosia elation)
Text: as §1, §2, §3

[6] = system: downy bromegrass (Bromus tectorum)
Text: as §1, §2, §3

[7] = system: yellow nutsedge (Cyperus esculentus)
Text: as §1, §2, §3

[8] = system: common (oilseed) sunflower (Helianthus annuus); conditions: Preemergence
Text: as §1, §2, §3

corn (Zea mays) = system: corn (Zea mays)
Text: as §1, §2, §3

[9] = system: eastern black (E.B.) nightshade (Solanum ptycanthum); conditions: Preemergence, scale 0 to 100
Text: as §1, §2, §3

[10] = system: green foxtail (Setaria viridis)
Text: as §1, §2, §3

wild oat (Avena fatua) = system: wild oat (Avena fatua)
Text: as §1, §2, §3

[11] = system: woolly cupgrass (Eriochloa villosa)
Text: as §1, §2, §3

[12] = Postemergence, 31 g ai/ha, scale 0 to 100, 0 no effect, 100 complete control
[13] = Postemergence, 62 g ai/ha, scale 0 to 100
[14] = Postemergence, 125 g ai/ha, scale 0 to 100
[15] = Postemergence, 250 g ai/ha, scale 0 to 100
[16] = Preemergence, 31 g ai/ha, 0 to 100 scale, 0 no effect, 100 complete control
[17] = Preemergence, 62 g ai/ha, scale 0 to 100
[18] = Preemergence, 125 g ai/ha, scale 0 to 100
[19] = Preemergence, 250 g ai/ha, scale 0 to 100

## Cc1cc(-c2ccc(Br)cc2)nn1-c1c(OC(=O)C2CC2)cnn(C)c1=O [Compound 5]
[1]; [12]
  Plant response rating, Cocklebur: 0
[1]; [13]
  Plant response rating, Cocklebur: 0
[1]; [14]
  Plant response rating, Cocklebur: 0
[1]; [15]
  Plant response rating, Cocklebur: 20
[1]; [16]
  Plant response rating, Cocklebur: 0
[1]; [17]
  Plant response rating, Cocklebur: 0
[1]; [18]
  Plant response rating, Cocklebur: 0
[2]; 250 g ai/ha, preemergence, 0-100 scale
  Blackgrass plant response rating: 100
[2]; [12]
  Plant response rating, Blackgrass: 95
[2]; [13]
  Plant response rating, Blackgrass: 100
[2]; [14]
  Plant response rating, Blackgrass: 100
[2]; [15]
  Plant response rating, Blackgrass: 100
[2]; [16]
  Plant response rating, Blackgrass: 100
[2]; [17]
  Plant response rating, Blackgrass: 100
[2]; [18]
  Plant response rating, Blackgrass: 100
[3]; [12]
  Plant response rating, Surinam Grass: 100
[3]; [13]
  Plant response rating, Surinam Grass: 100
[3]; [14]
  Plant response rating, Surinam Grass: 100
[3]; [15]
  Plant response rating, Surinam Grass: 100
[3]; [16]
  Plant response rating, Surinam Grass: 100
[3]; [17]
  Plant response rating, Surinam Grass: 100
[3]; [18]
  Plant response rating, Surinam Grass: 100
[3]; [19]
  Plant response rating, Surinam Grass: 100
[4]; [12]
  Plant response rating, Wheat: 90
[4]; [13]
  Plant response rating, Wheat: 100
[4]; [14]
  Plant response rating, Wheat: 100
[4]; [15]
  Plant response rating, Wheat: 100
[4]; [16]
  Plant response rating, Wheat: 30
[4]; [17]
  Plant response rating, Wheat: 70
[4]; [18]
  Plant response rating, Wheat: 95
[4]; [19]
  Plant response rating, Wheat: 98
[5]; [12]
  Plant response rating, Ragweed: 0
[5]; [13]
  Plant response rating, Ragweed: 0
[5]; [14]
  Plant response rating, Ragweed: 60
[5]; [15]
  Plant response rating, Ragweed: 65
[5]; [16]
  Plant response rating, Ragweed: 0
[5]; [17]
  Plant response rating, Ragweed: 0
[5]; [18]
  Plant response rating, Ragweed: 0
[5]; [19]
  Plant response rating, Ragweed: 10
[6]; [12]
  Plant response rating, Bromegrass, Downy: 5
[6]; [13]
  Plant response rating, Bromegrass, Downy: 50
[6]; [14]
  Plant response rating, Bromegrass, Downy: 50
[6]; [16]
  Plant response rating, Bromegrass, Downy: 40
[6]; [17]
  Plant response rating, Bromegrass, Downy: 85
[6]; [18]
  Plant response rating, Bromegrass, Downy: 98
[6]; Preemergence, 250 g ai/ha, scale 0 to 100 (0 no effect, 100 complete control)
  Plant response rating, Bromegrass, Downy: 100
[7]; [12]
  Plant response rating, Nutsedge, Yellow: 0
[7]; [13]
  Plant response rating, Nutsedge, Yellow: 0
[7]; [14]
  Plant response rating, Nutsedge, Yellow: 60
[7]; [17]
  Plant response rating, Nutsedge, Yellow: 0
[7]; [18]
  Plant response rating, Nutsedge, Yellow: 0
[8]; 31 g ai/ha, 0 to 100 scale, 0 no effect, 100 complete control
  Plant response rating, Sunflower: 0
[8]; 62 g ai/ha, scale 0 to 100
  Plant response rating, Sunflower: 0
[8]; 125 g ai/ha, scale 0 to 100
  Plant response rating, Sunflower: 0
[8]; 250 g ai/ha, scale 0 to 100
  Plant response rating, Sunflower: 0
Corn (Zea mays); [12]
  Plant response rating, Corn: 90
Corn (Zea mays); [13]
  Plant response rating, Corn: 100
Corn (Zea mays); [14]
  Plant response rating, Corn: 100
Corn (Zea mays); [15]
  Plant response rating, Corn: 100
Corn (Zea mays); [16]
  Plant response rating, Corn: 95
Corn (Zea mays); [17]
  Plant response rating, Corn: 95
Corn (Zea mays); [18]
  Plant response rating, Corn: 98
Corn (Zea mays); [19]
  Plant response rating, Corn: 100
[9]; 62 g ai/ha
  Plant response rating, Nightshade, E. B.: 0
[9]; 250 g ai/ha
  Plant response rating, Nightshade, E. B.: 100
[10]; [12]
  Plant response rating, Foxtail, Green: 95
[10]; [13]
  Plant response rating, Foxtail, Green: 100
[10]; [14]
  Plant response rating, Foxtail, Green: 100
[10]; [15]
  Plant response rating, Foxtail, Green: 100
[10]; [16]
  Plant response rating, Foxtail, Green: 98
[10]; [17]
  Plant response rating, Foxtail, Green: 100
[10]; [18]
  Plant response rating, Foxtail, Green: 100
[10]; [19]
  Plant response rating, Foxtail, Green: 100
Wild oat (Avena fatua); [12]
  Plant response rating, Oat, Wild: 95
Wild oat (Avena fatua); [13]
  Plant response rating, Oat, Wild: 100
Wild oat (Avena fatua); [14]
  Plant response rating, Oat, Wild: 100
Wild oat (Avena fatua); [15]
  Plant response rating, Oat, Wild: 100
Wild oat (Avena fatua); [16]
  Plant response rating, Oat, Wild: 30
Wild oat (Avena fatua); [17]
  Plant response rating, Oat, Wild: 70
Wild oat (Avena fatua); [18]
  Plant response rating, Oat, Wild: 80
Wild oat (Avena fatua); [19]
  Plant response rating, Oat, Wild: 95
[11]; [12]
  Plant response rating, Cupgrass, Woolly: 95
[11]; [13]
  Plant response rating, Cupgrass, Woolly: 100
[11]; [14]
  Plant response rating, Cupgrass, Woolly: 100
[11]; [15]
  Plant response rating, Cupgrass, Woolly: 100
[11]; [16]
  Plant response rating, Cupgrass, Woolly: 50
[11]; [17]
  Plant response rating, Cupgrass, Woolly: 90
[11]; [18]
  Plant response rating, Cupgrass, Woolly: 100
[11]; [19]
  Plant response rating, Cupgrass, Woolly: 100
